The values below come from US9723838B2, “Pyrazolyl amide compounds and uses thereof” (SHENYANG SINOCHEM AGROCHEMICALS R&D CO., LTD., priority 2013, dated 2017).

Molecules are shown by their SMILES.

The subject of one assay is diamondback moth. As to the kind of experiment: Test against diamondback moth (leaf disc spraying). In kind it is in vivo. As to conditions: Plutella xylostella, foliar, 72 h. From the text:
The test method is spraying. The leaves of cabbage grown in greenhouse were chosen, removed the surface waxy layer and perforated to get 3 cm diameter leaf discs by the hole puncher. The test compounds were sprayed on both sides of the discs by Airbrush according to the designed concentration from low to high dose. The cabbage discs were placed in 6 cm diameter Petri dish with filter paper. Tentest insects (3 instar) were introduced on each treatment after drying. Each treatment set the pure water as CK. The treated discs were placed in a certain condition. After 72 h, the number of surviving insects was investigated and the mortality rates were calculated.

The next assay deals with army worm. The assay can be described thus: Test against army worm (corn leaf spraying). In kind it is in vivo. As to conditions: 72 h. As for the experimental part: The test method is spraying. The middle part of fresh corn leaves were chosen and cut into 3 cm sects. The test compounds were sprayed on both sides of the sects by Airbrush according to the designed concentration from low to high dose. The sects were placed in 6 cm diameter Petri dish with filter paper. Ten test insects (3 instar) were introduced on each treatment after drying. Each treatment set the pure water as CK. The treated sects were placed in a certain condition. After 72 h, the number of surviving insects was investigated and the mortality rates were calculated.

In a further assay the test system is green peach aphid. As to the kind of experiment: Test against green peach aphid (spraying). Particulars: Myzus persicae, 48 h. The format is in vivo. As for the experimental part: According to the solubility of test compounds, the compounds are dissolved in acetone or dimethyl sulfoxide, and then diluted with 0.1% aqueous solution of Tween 80 to form the test liquid 50 ml, the content of acetone or dimethyl sulfoxide in the total solution is not more than 10%.
The 6 cm diameter Petri dish with a layer of filter paper was chosen, a moderate amount of water was added to preserve moisture. A suitable piece of cabbage leaf with 30-50 green peach aphids was excised from a culture plant. Remove the winged and positive aphids, the leaf was placed to the Petri dish above with back upward. The test compounds were sprayed on both sides of the leaf by Airbrush (spray pressure: 10 psi, equate to 0.7 kg/cm^2; spray volume: 0.5 mL; spray distance: 15-20 cm). The treated Petri dishes were placed in a chamber of 23-25° C., 40%-60% relative humidity, L/D 13 h: 11 h. To keep the leaf fresh, a moderate amount of water was added to the Petri dish during the observation. After 48 h, the number of surviving insects was investigated and the mortality rates were calculated.

The next assay relates to diamond back moth. As to conditions: disclosed in CN1653051A; cited from earlier work.
A further assay has as its system armyworm. As to conditions: disclosed in CN1653051A; cited from earlier work.

As usually defined, the mortality is the share of the test organisms that died. The low end stands for a weak lethal effect, the high end for a strong lethal effect. In the assay with diamondback moth, `CC(NC(=O)c1cc(F)cc(Cl)c1NC(=O)c1cc(Br)nn1-c1ncccc1Cl)C(N)=O` (centres unmarked) [KC2, reference compound] came in with a mortality at 0.156 ppm of 30%, a mortality at 0.313 ppm of 45.8% and a mortality at 0.63 ppm of 63.2%. Moreover, in the assay on army worm, the mortality at 2.5 ppm came out at 0%, the mortality at 5 ppm amounted to 16.7% and the mortality at 10 ppm turned out to be 61.6%. For the same molecule, in the assay on green peach aphid, the mortality at 2.5 ppm was found to be 0%, the mortality at 5 ppm came to 57.6% and the mortality at 10 ppm was determined as 70.4%. Further, the “insecticidal activity against diamond back moth” value in the assay on diamond back moth is recorded as “high activity”. The “insecticidal activity against armyworm” value in the assay on armyworm is “high activity”.
